# Assay results published in patent US20120196057A1 (priority 2008, published 2012).
# Entries after “also recorded” stand apart in the source; their conditions may differ.
# What was measured:
# [1] = Clinical trial: plasma 25-OH D after single oral bolus of 25-OH D3, Vitamin D3 or both; assay type: in vivo, human; details: single oral bolus 140 μg (combo 140 μg + 140 μg)
# From the text: Each group included five subjects. They are followed for four months in Zurich, Switzerland during the winter.
# Equal quantities of both substances were investigated. […] As the maximum pre-existing baseline concentration of 25-OH D will be 50 nmol/L, it is not anticipated that subjects will approach the range where disturbance in Ca^2+ homeostasis has been observed.
# Each dosage is consumed orally at breakfast. The duration of the study is four months for the “Daily” and “Weekly” groups. Subjects enrolled in the “Bolus” group consume orally a single dosage at the second study visit and are further followed-up for four months.
# gastrocnemius muscle = assay: Gene chip analysis in hindlimb unloading (tail suspension) skeletal muscle atrophy model; assay type: in vivo, BalbC mice; details: for Differentially expressed probe sets for genes between HU and HU + treatment group: 50 μg/kg/bw (combo 50+50) by gavage twice, 7 days hindlimb unloading, Affymetrix Mouse 430-2; for Expression of Myosin, light chain kinase (Mylk) / Expression of Tropomyosin 1 (Tpm1) / Expression of Titin (Tnt) / Expression of Myomesin 1 (Myom 1) / Number of differentially expressed probe sets also differentially expressed in 25-OH D3+Vitamin D3 group / Share of differentially expressed probe sets also differentially expressed in 25-OH D3+Vitamin D3 group: gastrocnemius muscle; for Expression of Myosin, light chain kinase (Mylk): HU control 749; for Expression of Tropomyosin 1 (Tpm1): HU control 1179; for Expression of Titin (Tnt): HU control 11353; for Expression of Myomesin 1 (Myom 1): HU control 84697; for Differentially expressed muscle genes compared to HU: selected skeletal muscle genes, list wrapped over table lines; for Number of differentially expressed probe sets also differentially expressed in 25-OH D3+Vitamin D3 group / Share of differentially expressed probe sets also differentially expressed in 25-OH D3+Vitamin D3 group: vs HU control
# From the text: Initially this model was established in rats for simulating spaceflight in humans and is commonly used in other scientific fields to study the loss of skeletal muscle mass or bone. The results are considered indicative of human conditions such as sarcopenia (degenerative loss of skeletal muscle mass and strength during the process of ageing) or immobilization of skeletal muscle (e.g. after prolonged bed rest due to fractures, surgery or trauma). Methods For our study, nine month old BalbC female mice were randomized at the beginning of the study into four groups with 10 animals per group • 1. […] The animals were placed in special cages for duration of seven days; all mice were housed separately and had free access to feed and water ad libidum. All animals were treated twice by gavage at the beginning of the experiment and 3 hours before the section: 1. the control group received vehicle (gelatine) […] At the end of the study the gastrocnemius muscle was taken out and directly frozen in liquid nitrogen for further analysis. […] Total RNA was isolated using the commonly used Trizol protocol. The RNA was quantified by using spectrophotometric analysis. The integrity of total RNA samples was also assessed qualitatively on an Agilent 2100 Bioanalyzer. RNA was then prepared for the one cycle cDNA synthesis. A poly-A RNA control is used for this step to provide exogenous positive controls to monitor the entire eukaryotic target labelling process. The first cDNA synthesis is done, and after the second strand cDNA synthesis the cDNA is cleaned up of double-stranded cDNA. A biotin labelled cRNA is then synthesised, cleaned up and quantified using a spectrophotometer at 260/280 nm. It is important that cRNA target is fragmented before hybridization onto a GeneChip probe arrays to obtain optimal assay sensitivity. After fragmentation the probes are hybridized on the chips (Affymetrix Mouse 430-2 chips). The chips are washed and stained in the fluidics station of Affymetrix and scanned in the gene chip scanner. The data is then transferred from the scanner for further analysis using software from Genedata (Expressionist 5.0: […] Analyst). Data interpretation and pathway analysis was done with the online version of the GeneGo Metacore package ([…] evaluates microarray data for quality issues and flags problematic measurements. It provides a set of normalization algorithms and validated condensing methods to automatically pre-process and summarize raw microarray data for subsequent statistical analysis.
# [2] = ingestion of 250 μg/day as a dietary supplement; cited from earlier work
Molecule,Time period with increase in plasma 25-OH D levels by at least 30 nmol/L [1],Differentially expressed probe sets for genes between HU and HU + treatment group (gastrocnemius muscle),"Expression of Myosin, light chain kinase (Mylk) (gastrocnemius muscle)",Expression of Tropomyosin 1 (Tpm1) (gastrocnemius muscle),Expression of Titin (Tnt) (gastrocnemius muscle),Expression of Myomesin 1 (Myom 1) (gastrocnemius muscle),Differentially expressed muscle genes compared to HU (gastrocnemius muscle),Number of differentially expressed probe sets also differentially expressed in 25-OH D3+Vitamin D3 group (gastrocnemius muscle),Share of differentially expressed probe sets also differentially expressed in 25-OH D3+Vitamin D3 group (gastrocnemius muscle),Blood concentration of 25-hydroxyvitamin D resulting from ingestion [2]
"C=C1CC[C@H](O)C/C1=C/C=C1\CCC[C@]2(C)[C@@H]([C@H](C)CCCC(C)(C)O)CC[C@@H]12 [25-OH D3, 25-hydroxyvitamin D3]",4 to 49 h,1263,994,2110,13786,105393,"alkali, smooth muscle and non-muscle; myosin, light; also recorded: polypeptide kinase; myotubularin related protein 2;; also recorded: myotubularin related protein 4; myotubularin related; also recorded: protein 6; tropomyosin 2, beta; X-linked myotubular; also recorded: myopathy gene 1; also recorded: Desmin; dystonin; myocyte enhancer factor 2A;; also recorded: myoneurin; myosin VIIb; myosin, light polypeptide 6,",769,~61%,
"C=C1CC[C@H](O)C/C1=C/C=C1\CCC[C@]2(C)[C@@H]([C@H](C)CCCC(C)C)CC[C@@H]12 [Vitamin D3, cholecalciferol]",,385,786,2199,11354,99099,"Desmin; myoneurin; tropomyosin 1, alpha; tropomyosin 2,; also recorded: beta; X-linked myotubular myopathy gene 1",177,~46%,
Vitamin D,no increase of that magnitude,,,,,,,,,about 200 nmol/L
